Experimental data published in PubChem BioAssay AID1963985 (Molecular Pharmacology Branch, DTP, NCI, 2024).
pIC50: −log10 of the molar value.

System: 252836-082-R-J2-PDC tumor spheroids, viability
Assay: Anticancer human tumor 252836-082-R-J2-PDC patient-derived head and neck squamous cell carcinoma cell line growth inhibition [PI3K]
Conditions: spheroids with HUVEC and MSC; for pIC50: curve of first compound; for viability, T/C: stronger effect = lower value
Outline: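 Agents were dosed from a top concentration near clinical Cmax (otherwise 10 microM) in half-log decrements, alone or combined with PI3K inhibitors. The spheroids contain tumor cells plus endothelial (HUVEC) and MSC stroma; viability is measured.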

[1] = second compound 0.0316 µM, first compound 0.0316 µM
[2] = second compound 0.0316 µM, first compound 0.1 µM
[3] = second compound 0.1 µM, first compound 0.0316 µM
[4] = second compound 0.1 µM, first compound 0.1 µM
[5] = second compound 0.316 µM, first compound 0.0316 µM
[6] = second compound 0.316 µM, first compound 0.1 µM
[7] = second compound 1 µM, first compound 0.0316 µM
[8] = second compound 1 µM, first compound 0.1 µM
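Also: spheroids exposed to agents for seven days before readout.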
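For viability, T/C in this document: percent of vehicle DMSO control viability so 100% = untreated growth.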

Which results are given for `C=CC(=O)N1CCN(c2nc(=O)n(-c3c(C)ccnc3C(C)C)c3nc(-c4c(O)cccc4F)c(F)cc23)C(C)C1` (centres undefined) + CC(Nc1ccc2c(c1)OCCn1cc(N3C(=O)OCC3C(F)F)nc1-2)C(N)=O?
pIC50 (second compound 0.00316 µM): < 5.00; pIC50 (second compound 0.01 µM): < 5.00; pIC50 (second compound 0.0316 µM): < 5.00; pIC50 (second compound 0.1 µM): < 5.00; pIC50 (second compound 0.316 µM): < 5.00; pIC50 (second compound 1 µM): > 7.50; viability, T/C (second compound 0.00316 µM, first compound 0.0316 µM): 104%; viability, T/C (second compound 0.00316 µM, first compound 0.1 µM): 87.8%; viability, T/C (second compound 0.00316 µM, first compound 0.316 µM): 105%; viability, T/C (second compound 0.00316 µM, first compound 1 µM): 105%; viability, T/C (second compound 0.00316 µM, first compound 3.16 µM): 115%; viability, T/C (second compound 0.00316 µM, first compound 10 µM): 95.9%; viability, T/C (second compound 0.01 µM, first compound 0.0316 µM): 95.3%; viability, T/C (second compound 0.01 µM, first compound 0.1 µM): 90%; viability, T/C (second compound 0.01 µM, first compound 0.316 µM): 117%; viability, T/C (second compound 0.01 µM, first compound 1 µM): 86.8%; viability, T/C (second compound 0.01 µM, first compound 3.16 µM): 104%; viability, T/C (second compound 0.01 µM, first compound 10 µM): 89.7%; viability, T/C [1]: 79.2%; viability, T/C [2]: 78.6%; viability, T/C (second compound 0.0316 µM, first compound 0.316 µM): 104%; viability, T/C (second compound 0.0316 µM, first compound 1 µM): 88.4%; viability, T/C (second compound 0.0316 µM, first compound 3.16 µM): 100%; viability, T/C (second compound 0.0316 µM, first compound 10 µM): 78.3%; viability, T/C [3]: 76.1%; viability, T/C [4]: 62.8%; viability, T/C (second compound 0.1 µM, first compound 0.316 µM): 76.9%; viability, T/C (second compound 0.1 µM, first compound 1 µM): 76.3%; viability, T/C (second compound 0.1 µM, first compound 3.16 µM): 81%; viability, T/C (second compound 0.1 µM, first compound 10 µM): 94.6%; viability, T/C [5]: 63.5%; viability, T/C [6]: 60.6%; viability, T/C (second compound 0.316 µM, first compound 0.316 µM): 59.5%; viability, T/C (second compound 0.316 µM, first compound 1 µM): 56.3%; viability, T/C (second compound 0.316 µM, first compound 3.16 µM): 62.2%; viability, T/C (second compound 0.316 µM, first compound 10 µM): 67.6%; viability, T/C [7]: 45.3%; viability, T/C [8]: 53%; viability, T/C (second compound 1 µM, first compound 0.316 µM): 53.3%; viability, T/C (second compound 1 µM, first compound 1 µM): 41.6%; viability, T/C (second compound 1 µM, first compound 3.16 µM): 57%; viability, T/C (second compound 1 µM, first compound 10 µM): 47.7%

`CC(C)n1nc(-c2ccc3oc(N)nc3c2)c2c(N)ncnc21` + CC(Nc1ncnc2nc[nH]c12)c1cc2cccc(Cl)c2c(=O)n1-c1ccccc1 was tested. Which pIC50 (second compound 0.0316 µM) did it give?
Its pIC50 is 7.32.

What about the pIC50 (second compound 0.1 µM) of the same compound?
Its pIC50 is 7.43.

And the pIC50 (second compound 0.316 µM)?
The pIC50 was 7.47.

What about the pIC50 (second compound 1 µM) of the same compound?
Its pIC50 is 7.49.

What about the pIC50 (second compound 3.16 µM) of the same compound?
Its pIC50 is 7.67.

What about the pIC50 (second compound 10 µM) of the same compound?
The pIC50 was 7.95.

What about the viability, T/C (second compound 0.0316 µM, first compound 0.000316 µM) of the same compound?
The viability, T/C was 91.7%.

And the viability, T/C (second compound 0.0316 µM, first compound 0.001 µM)?
The viability, T/C was 93.5%.

What about the viability, T/C (second compound 0.0316 µM, first compound 0.00316 µM) of the same compound?
Its viability, T/C is 89.5%.

What about the viability, T/C (second compound 0.0316 µM, first compound 0.01 µM) of the same compound?
The viability, T/C was 95.5%.

And the viability, T/C [1]?
Its viability, T/C is 65.6%.

And the viability, T/C [2]?
Its viability, T/C is 21.7%.

And the viability, T/C (second compound 0.1 µM, first compound 0.000316 µM)?
The viability, T/C was 94.1%.

And the viability, T/C (second compound 0.1 µM, first compound 0.001 µM)?
Its viability, T/C is 97.9%.

And the viability, T/C (second compound 0.1 µM, first compound 0.00316 µM)?
The viability, T/C was 71.1%.

What about the viability, T/C (second compound 0.1 µM, first compound 0.01 µM) of the same compound?
The viability, T/C was 77.5%.

What about the viability, T/C [3] of the same compound?
The viability, T/C was 55.1%.

What about the viability, T/C [4] of the same compound?
The viability, T/C was 24.2%.

And the viability, T/C (second compound 0.316 µM, first compound 0.000316 µM)?
The viability, T/C was 95.3%.

And the viability, T/C (second compound 0.316 µM, first compound 0.001 µM)?
Its viability, T/C is 79%.

What about the viability, T/C (second compound 0.316 µM, first compound 0.00316 µM) of the same compound?
Its viability, T/C is 83.5%.

And the viability, T/C (second compound 0.316 µM, first compound 0.01 µM)?
The viability, T/C was 87.4%.

And the viability, T/C [5]?
The viability, T/C was 52%.

What about the viability, T/C [6] of the same compound?
The viability, T/C was 22.4%.

What about the viability, T/C (second compound 1 µM, first compound 0.000316 µM) of the same compound?
The viability, T/C was 96%.

And the viability, T/C (second compound 1 µM, first compound 0.001 µM)?
The viability, T/C was 88.6%.

What about the viability, T/C (second compound 1 µM, first compound 0.00316 µM) of the same compound?
Its viability, T/C is 83.5%.

And the viability, T/C (second compound 1 µM, first compound 0.01 µM)?
Its viability, T/C is 69.8%.

What about the viability, T/C [7] of the same compound?
The viability, T/C was 50.8%.

And the viability, T/C [8]?
The viability, T/C was 22.7%.

What about the viability, T/C (second compound 3.16 µM, first compound 0.000316 µM) of the same compound?
The viability, T/C was 79.2%.

What about the viability, T/C (second compound 3.16 µM, first compound 0.001 µM) of the same compound?
The viability, T/C was 76.9%.

What about the viability, T/C (second compound 3.16 µM, first compound 0.00316 µM) of the same compound?
Its viability, T/C is 78.5%.

And the viability, T/C (second compound 3.16 µM, first compound 0.01 µM)?
Its viability, T/C is 64.2%.

What about the viability, T/C (second compound 3.16 µM, first compound 0.0316 µM) of the same compound?
The viability, T/C was 42.8%.

What about the viability, T/C (second compound 3.16 µM, first compound 0.1 µM) of the same compound?
Its viability, T/C is 22%.

What about the viability, T/C (second compound 10 µM, first compound 0.000316 µM) of the same compound?
Its viability, T/C is 74.1%.

And the viability, T/C (second compound 10 µM, first compound 0.001 µM)?
Its viability, T/C is 60%.

What about the viability, T/C (second compound 10 µM, first compound 0.00316 µM) of the same compound?
Its viability, T/C is 68.1%.

And the viability, T/C (second compound 10 µM, first compound 0.01 µM)?
The viability, T/C was 47%.

What about the viability, T/C (second compound 10 µM, first compound 0.0316 µM) of the same compound?
The viability, T/C was 39.4%.

And the viability, T/C (second compound 10 µM, first compound 0.1 µM)?
The viability, T/C was 18%.
